Activity calls are given as the source filed them.
Tests used:
[1] = target: T1, RNA-binding protein pos-1 (Caenorhabditis elegans, UniProt G5EF15); assay: inhibitors of POS-1/mex-3 RNA binding, dose response, biochemical, fluorescence polarization (AID 1964);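 further: purified POS-1 fused to maltose binding protein made in E. coli; potency of compounds blocking POS-1 binding to fluorescent RNA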
T1 sequence (G5EF15 whole entry): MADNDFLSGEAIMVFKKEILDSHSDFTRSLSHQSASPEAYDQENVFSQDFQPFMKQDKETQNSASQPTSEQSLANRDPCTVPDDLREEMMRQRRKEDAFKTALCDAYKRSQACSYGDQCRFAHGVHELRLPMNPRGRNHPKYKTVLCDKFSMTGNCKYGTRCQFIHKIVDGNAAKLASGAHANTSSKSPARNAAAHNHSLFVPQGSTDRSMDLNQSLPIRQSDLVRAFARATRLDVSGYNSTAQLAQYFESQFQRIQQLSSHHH

[2] = target: T2, Zinc finger protein mex-5 (Caenorhabditis elegans, UniProt Q9XUB2); assay: MEX-5/TCR-2 RNA interaction inhibitors, dose response, biochemical, C. elegans, fluorescence polarization (AID 1960)
T2 sequence (Q9XUB2 whole entry): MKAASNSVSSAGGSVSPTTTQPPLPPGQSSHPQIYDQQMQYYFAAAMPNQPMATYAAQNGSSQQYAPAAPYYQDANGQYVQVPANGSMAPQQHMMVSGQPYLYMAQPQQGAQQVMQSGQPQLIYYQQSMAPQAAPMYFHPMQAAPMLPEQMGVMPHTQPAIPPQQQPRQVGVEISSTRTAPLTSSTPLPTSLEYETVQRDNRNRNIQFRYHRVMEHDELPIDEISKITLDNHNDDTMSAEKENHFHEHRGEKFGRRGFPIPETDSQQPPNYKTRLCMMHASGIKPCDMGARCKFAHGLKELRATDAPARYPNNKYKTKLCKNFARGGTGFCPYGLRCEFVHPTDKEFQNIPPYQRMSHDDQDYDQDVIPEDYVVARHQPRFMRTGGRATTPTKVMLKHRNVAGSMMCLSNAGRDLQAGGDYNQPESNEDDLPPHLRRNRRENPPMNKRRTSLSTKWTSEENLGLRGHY

[3] = target: T3, Sentrin-specific protease 1 (Homo sapiens, UniProt Q9P0U3); assay: potency of human SENP1 inhibitors, dose response, biochemical, kinetic FRET (AID 651697); format: functional; settings: read-out: IC50_Mean
T3 sequence (Q9P0U3 whole entry): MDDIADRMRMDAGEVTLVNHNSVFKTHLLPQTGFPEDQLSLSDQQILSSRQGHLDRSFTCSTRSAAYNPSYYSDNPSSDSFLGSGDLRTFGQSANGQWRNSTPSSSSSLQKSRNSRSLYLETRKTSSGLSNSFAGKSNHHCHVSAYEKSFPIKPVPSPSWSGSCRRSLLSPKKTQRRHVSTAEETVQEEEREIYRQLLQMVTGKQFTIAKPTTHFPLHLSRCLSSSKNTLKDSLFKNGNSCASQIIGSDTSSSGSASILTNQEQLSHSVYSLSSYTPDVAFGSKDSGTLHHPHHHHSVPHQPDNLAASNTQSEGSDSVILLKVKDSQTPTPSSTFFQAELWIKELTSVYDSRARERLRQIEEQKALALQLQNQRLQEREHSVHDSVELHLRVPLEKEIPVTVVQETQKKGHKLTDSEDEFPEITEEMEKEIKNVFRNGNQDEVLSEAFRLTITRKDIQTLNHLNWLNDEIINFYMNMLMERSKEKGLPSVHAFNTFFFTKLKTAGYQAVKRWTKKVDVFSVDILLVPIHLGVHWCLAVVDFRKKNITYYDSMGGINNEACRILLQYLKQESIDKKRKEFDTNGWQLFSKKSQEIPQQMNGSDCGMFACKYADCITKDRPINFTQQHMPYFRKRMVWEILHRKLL

[4] = target: T3, Sentrin-specific protease 1; assay: Dose response confirmation of small molecule inhibitors of the catalytic domain of the SUMO protease, SENP1 in a FRET assay.; format: functional; settings: read-out: IC50_Mean
[5] = target: T4, Rac GTPase-activating protein 1 (Homo sapiens, UniProt Q9H0H5); assay: MgcRacGAP GTPase-activating activity inhibitors, confirmation, biochemical, ADP Hunter fluorescence, primary and confirmatory (AID 624330); format: functional
T4 sequence (Q9H0H5 whole entry): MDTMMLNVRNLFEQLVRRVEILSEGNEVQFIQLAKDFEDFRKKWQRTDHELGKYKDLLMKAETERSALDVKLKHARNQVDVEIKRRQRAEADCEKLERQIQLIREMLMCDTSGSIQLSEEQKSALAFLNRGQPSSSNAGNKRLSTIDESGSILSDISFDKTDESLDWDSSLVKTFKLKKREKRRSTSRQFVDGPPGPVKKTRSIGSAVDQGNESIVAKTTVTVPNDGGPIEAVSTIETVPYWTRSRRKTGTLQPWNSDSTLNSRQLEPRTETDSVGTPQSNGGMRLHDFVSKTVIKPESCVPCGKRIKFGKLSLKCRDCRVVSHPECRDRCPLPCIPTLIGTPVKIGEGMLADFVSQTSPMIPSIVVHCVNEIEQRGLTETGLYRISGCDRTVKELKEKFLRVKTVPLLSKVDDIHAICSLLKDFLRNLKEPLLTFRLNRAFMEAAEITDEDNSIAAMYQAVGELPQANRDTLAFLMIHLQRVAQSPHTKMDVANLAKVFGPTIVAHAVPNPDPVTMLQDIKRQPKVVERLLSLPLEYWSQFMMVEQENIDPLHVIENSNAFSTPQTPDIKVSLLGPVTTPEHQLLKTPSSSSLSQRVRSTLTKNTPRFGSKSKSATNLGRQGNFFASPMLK

[6] = target: T5, Sentrin-specific protease 8 (Homo sapiens, UniProt Q96LD8); format: functional
T5 sequence (Q96LD8 whole entry): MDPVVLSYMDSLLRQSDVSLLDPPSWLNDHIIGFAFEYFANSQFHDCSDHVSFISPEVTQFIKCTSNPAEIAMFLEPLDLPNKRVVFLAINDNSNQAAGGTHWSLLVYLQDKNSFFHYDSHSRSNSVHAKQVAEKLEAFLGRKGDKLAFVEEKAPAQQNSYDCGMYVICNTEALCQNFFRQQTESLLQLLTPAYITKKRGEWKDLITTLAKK

[7] = target: T5, Sentrin-specific protease 8; format: functional; remark: listed apart in the source
[8] = target: Peroxisome proliferator-activated receptor gamma/Nuclear receptor coactivator 1 (Homo sapiens, UniProt P37231); assay: (§1) TR-FRET dose response biochemical High Throughput Screening assay for agonists of the steroid receptor coactivator 1 (SRC-1) recruitment by the peroxisome proliferator-activated receptor gamma (PPAR gamma): non-selective agonists. [Related pubchem assays (depositor defined):AID1300, AID1808, AID504735, AID631]; format: protein assay
[9] = target: Peroxisome proliferator-activated receptor gamma/Nuclear receptor coactivator 3 (Homo sapiens, UniProt P37231); assay: as §1, with “3 (SRC-3)” for “1 (SRC-1)”, “assays: 1301 (Confirmation screen.), 1048 (Primary screen.)]” for “assays (depositor defined):AID1300, AID1808, AID504735, AID631]”; format: functional
[10] = target: Luciferin 4-monooxygenase (Photinus pyralis, UniProt P08659); assay: firefly luciferase enzyme inhibitors, dose response, biochemical, luminescence (AID 1891)
[11] = Luminescence Cell-Based Dose Confirmation HTS to Identify Inhibitors of Platelet Dense Granule Release. [Related pubchem assays: 1663 (Primary HTS), 1678 (Summary of Project)]; format: functional
[12] = target: Peroxisome proliferator-activated receptor gamma/Nuclear receptor coactivator 2 (Homo sapiens, UniProt P37231); assay: TR-FRET dose response biochemical High Throughput Screening assay for agonists of the steroid receptor coactivator 2 (SRC-2) recruitment by the peroxisome proliferator-activated receptor gamma (PPAR gamma): non-selective agonists. [Related pubchem assays: 1297, 1032 ]; format: functional
Beta-galactosidase = Beta-galactosidase (Escherichia coli, UniProt Q8VNN2); assay: beta-galactosidase enzyme inhibitors and activators, dose response, artefact control for CCR6 antagonist project, biochemical, E. coli enzyme, set 3 (AID 504712); format: functional
[13] = target: T6, Heat shock factor protein 1 (Mus musculus, UniProt P38532); assay: HSF1 potentiators in luciferase reporter cells, confirmation, cell-based, NIH3T3, luminescence, dose retest (AID 435004); format: functional;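 further: stress induced by proteasome inhibitor MG132 added 30 min after compound; luciferase reporter driven by HSF1 response element in NIH3T3 cells; actives raise luminescence as potentiators of the MG132 stress response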
T6 sequence (P38532 whole entry): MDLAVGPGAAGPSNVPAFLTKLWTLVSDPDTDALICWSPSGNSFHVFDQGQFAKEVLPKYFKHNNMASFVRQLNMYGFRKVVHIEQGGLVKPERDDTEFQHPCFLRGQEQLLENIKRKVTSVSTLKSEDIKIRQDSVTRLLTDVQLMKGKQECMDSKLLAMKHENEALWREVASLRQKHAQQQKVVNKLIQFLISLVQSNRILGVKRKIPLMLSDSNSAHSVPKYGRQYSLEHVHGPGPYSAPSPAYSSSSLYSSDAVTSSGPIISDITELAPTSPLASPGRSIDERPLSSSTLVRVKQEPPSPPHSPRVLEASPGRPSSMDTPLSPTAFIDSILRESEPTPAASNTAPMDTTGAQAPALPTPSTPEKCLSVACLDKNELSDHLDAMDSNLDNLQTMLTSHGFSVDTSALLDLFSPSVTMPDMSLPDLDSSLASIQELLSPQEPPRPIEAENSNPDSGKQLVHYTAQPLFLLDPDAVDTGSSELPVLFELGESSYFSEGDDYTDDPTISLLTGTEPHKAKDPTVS

[14] = Fluorescence-based cell-based high throughput dose response assay for inhibitors of the interaction of nucleotide-binding oligomerization domain containing 2 (NOD2) and the receptor-interacting serine-threonine kinase 2 (RIPK2).; format: functional; settings: Homo sapiens
Beta Lactamase = Beta Lactamase (Pseudomonas aeruginosa, UniProt Q932Y6); assay: beta-lactamase reporter inhibitor potency, dose response, artefact control for NOD2-RIPK2 interaction inhibitor project, BLA reporter cells, FRET fluorescence (AID 651552); format: functional, cell-based
[15] = target: T7, Acyl-homoserine lactone acylase PvdQ (Pseudomonas aeruginosa (strain LESB58), UniProt Q9I194); assay: P. aeruginosa PvdQ acylase inhibitors, dose response, biochemical, fluorescence, plate reader and imaging, cherry-picks (AID 493231)
T7 sequence (Q9I194 whole entry): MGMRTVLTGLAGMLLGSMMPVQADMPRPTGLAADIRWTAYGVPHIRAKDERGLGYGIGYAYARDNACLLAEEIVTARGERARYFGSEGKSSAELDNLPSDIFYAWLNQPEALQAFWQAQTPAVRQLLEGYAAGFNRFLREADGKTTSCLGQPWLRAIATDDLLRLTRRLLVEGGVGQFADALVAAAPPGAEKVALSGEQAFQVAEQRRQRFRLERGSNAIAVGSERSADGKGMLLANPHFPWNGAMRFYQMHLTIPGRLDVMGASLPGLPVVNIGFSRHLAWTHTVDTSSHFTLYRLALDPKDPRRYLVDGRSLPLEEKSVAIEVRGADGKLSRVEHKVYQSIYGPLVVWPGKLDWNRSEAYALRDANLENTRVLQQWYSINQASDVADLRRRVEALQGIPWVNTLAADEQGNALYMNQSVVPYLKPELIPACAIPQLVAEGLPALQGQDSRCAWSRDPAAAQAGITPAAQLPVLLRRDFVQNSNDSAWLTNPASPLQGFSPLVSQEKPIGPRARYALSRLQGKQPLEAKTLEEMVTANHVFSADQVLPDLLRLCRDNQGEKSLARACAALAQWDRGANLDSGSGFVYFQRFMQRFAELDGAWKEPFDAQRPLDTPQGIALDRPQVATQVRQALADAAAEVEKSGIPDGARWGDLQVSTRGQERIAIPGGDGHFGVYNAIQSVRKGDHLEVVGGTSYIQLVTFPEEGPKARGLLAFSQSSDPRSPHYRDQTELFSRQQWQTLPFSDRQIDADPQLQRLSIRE

[16] = Luminescence Cell-Based Dose Retest to Confirm Inhibitors of Cancer Stem Cells. [Related pubchem assays (depositor defined):AID2717, AID2721]; format: functional; settings: Homo sapiens
Vero = assay: cells; format: functional; settings: Chlorocebus sabaeus
[17] = target: Hepatocyte nuclear factor 4-alpha (Homo sapiens, UniProt P41235); format: functional, cell-based;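 further: biochemical luminescence-based dose-response counterscreen measuring inhibition of HNF4 dimerization, run alongside a screen for blockers of ABHD5–perilipin-5 interaction; split luciferase complementation of HNF4 fusion proteins in cell lysate measuring dimerization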
Sequence of Hepatocyte nuclear factor 4-alpha (P41235 whole entry, the tested form may be a part): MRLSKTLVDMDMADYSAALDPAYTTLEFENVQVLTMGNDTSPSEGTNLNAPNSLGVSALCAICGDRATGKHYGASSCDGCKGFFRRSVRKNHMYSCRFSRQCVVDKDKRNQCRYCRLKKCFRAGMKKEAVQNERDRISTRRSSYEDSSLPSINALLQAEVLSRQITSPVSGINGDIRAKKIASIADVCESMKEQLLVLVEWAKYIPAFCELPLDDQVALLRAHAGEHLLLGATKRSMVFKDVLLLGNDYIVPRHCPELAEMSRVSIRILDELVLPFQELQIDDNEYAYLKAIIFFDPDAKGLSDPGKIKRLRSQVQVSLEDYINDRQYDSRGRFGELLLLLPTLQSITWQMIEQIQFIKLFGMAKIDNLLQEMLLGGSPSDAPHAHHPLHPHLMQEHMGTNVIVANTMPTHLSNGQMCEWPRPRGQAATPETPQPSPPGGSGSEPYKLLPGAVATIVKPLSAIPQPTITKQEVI

Sequence of Beta Lactamase (Q932Y6 whole entry): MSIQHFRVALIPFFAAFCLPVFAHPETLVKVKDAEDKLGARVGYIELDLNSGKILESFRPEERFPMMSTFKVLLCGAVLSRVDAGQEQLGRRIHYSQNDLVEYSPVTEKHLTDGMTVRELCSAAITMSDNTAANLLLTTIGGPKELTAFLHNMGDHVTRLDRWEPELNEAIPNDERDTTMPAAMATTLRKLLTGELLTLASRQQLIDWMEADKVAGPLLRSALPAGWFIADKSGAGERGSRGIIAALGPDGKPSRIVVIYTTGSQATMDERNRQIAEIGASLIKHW
Sequence of Peroxisome proliferator-activated receptor gamma/Nuclear receptor coactivator 2 (P37231 whole entry): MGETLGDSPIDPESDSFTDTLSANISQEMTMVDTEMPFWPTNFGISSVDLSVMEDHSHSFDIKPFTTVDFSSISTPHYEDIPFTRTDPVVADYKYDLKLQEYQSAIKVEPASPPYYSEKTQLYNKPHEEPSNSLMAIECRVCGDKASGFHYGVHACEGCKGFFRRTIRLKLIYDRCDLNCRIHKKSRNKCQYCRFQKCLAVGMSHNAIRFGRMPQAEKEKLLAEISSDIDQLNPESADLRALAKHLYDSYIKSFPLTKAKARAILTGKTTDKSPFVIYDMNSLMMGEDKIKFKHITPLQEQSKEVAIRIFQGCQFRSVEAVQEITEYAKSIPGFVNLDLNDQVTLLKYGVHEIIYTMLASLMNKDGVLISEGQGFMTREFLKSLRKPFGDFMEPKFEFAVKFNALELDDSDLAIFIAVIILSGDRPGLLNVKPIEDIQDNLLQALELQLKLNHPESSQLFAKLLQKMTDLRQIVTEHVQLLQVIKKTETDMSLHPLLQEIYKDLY
Sequence of Peroxisome proliferator-activated receptor gamma/Nuclear receptor coactivator 2 (Q15596 whole entry, further chain): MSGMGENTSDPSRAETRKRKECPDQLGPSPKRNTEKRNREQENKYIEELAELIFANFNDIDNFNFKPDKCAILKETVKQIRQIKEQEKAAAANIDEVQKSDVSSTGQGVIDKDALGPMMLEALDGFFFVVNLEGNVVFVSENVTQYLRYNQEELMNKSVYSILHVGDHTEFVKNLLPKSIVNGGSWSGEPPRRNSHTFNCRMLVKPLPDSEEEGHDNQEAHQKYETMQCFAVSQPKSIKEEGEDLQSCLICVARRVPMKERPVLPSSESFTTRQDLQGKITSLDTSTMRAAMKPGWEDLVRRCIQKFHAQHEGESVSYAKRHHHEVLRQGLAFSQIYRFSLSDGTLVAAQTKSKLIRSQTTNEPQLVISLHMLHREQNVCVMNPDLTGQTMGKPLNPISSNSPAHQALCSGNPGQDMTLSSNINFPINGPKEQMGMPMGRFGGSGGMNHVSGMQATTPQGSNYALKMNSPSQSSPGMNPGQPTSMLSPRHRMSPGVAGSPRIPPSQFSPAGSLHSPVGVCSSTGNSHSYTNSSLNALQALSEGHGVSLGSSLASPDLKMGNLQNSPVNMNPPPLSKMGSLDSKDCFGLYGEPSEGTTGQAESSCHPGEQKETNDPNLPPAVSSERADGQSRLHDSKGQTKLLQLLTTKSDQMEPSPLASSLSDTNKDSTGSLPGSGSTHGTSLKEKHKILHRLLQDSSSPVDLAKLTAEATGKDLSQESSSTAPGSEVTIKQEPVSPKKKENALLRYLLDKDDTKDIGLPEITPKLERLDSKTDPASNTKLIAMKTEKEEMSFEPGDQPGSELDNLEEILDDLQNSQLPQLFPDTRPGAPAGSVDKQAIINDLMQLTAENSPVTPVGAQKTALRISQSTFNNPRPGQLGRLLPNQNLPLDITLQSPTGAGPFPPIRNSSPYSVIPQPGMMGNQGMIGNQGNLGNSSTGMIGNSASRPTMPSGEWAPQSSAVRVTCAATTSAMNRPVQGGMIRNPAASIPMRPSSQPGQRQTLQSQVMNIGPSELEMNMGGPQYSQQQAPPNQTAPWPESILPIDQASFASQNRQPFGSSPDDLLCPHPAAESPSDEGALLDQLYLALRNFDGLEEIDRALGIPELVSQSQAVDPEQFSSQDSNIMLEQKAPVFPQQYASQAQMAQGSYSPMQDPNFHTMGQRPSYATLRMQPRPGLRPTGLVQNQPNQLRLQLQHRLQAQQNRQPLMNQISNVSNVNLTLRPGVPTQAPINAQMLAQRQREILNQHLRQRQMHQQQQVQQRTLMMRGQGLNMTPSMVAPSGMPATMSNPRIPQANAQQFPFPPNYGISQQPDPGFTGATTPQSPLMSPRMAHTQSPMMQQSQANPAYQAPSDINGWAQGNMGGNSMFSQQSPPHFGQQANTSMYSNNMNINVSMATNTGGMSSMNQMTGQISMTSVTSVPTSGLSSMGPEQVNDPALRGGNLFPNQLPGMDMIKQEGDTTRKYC
Sequence of Peroxisome proliferator-activated receptor gamma/Nuclear receptor coactivator 3 (P37231 whole entry): as the sequence (P37231 whole entry) above
Sequence of Peroxisome proliferator-activated receptor gamma/Nuclear receptor coactivator 3 (Q9Y6Q9 whole entry, further chain): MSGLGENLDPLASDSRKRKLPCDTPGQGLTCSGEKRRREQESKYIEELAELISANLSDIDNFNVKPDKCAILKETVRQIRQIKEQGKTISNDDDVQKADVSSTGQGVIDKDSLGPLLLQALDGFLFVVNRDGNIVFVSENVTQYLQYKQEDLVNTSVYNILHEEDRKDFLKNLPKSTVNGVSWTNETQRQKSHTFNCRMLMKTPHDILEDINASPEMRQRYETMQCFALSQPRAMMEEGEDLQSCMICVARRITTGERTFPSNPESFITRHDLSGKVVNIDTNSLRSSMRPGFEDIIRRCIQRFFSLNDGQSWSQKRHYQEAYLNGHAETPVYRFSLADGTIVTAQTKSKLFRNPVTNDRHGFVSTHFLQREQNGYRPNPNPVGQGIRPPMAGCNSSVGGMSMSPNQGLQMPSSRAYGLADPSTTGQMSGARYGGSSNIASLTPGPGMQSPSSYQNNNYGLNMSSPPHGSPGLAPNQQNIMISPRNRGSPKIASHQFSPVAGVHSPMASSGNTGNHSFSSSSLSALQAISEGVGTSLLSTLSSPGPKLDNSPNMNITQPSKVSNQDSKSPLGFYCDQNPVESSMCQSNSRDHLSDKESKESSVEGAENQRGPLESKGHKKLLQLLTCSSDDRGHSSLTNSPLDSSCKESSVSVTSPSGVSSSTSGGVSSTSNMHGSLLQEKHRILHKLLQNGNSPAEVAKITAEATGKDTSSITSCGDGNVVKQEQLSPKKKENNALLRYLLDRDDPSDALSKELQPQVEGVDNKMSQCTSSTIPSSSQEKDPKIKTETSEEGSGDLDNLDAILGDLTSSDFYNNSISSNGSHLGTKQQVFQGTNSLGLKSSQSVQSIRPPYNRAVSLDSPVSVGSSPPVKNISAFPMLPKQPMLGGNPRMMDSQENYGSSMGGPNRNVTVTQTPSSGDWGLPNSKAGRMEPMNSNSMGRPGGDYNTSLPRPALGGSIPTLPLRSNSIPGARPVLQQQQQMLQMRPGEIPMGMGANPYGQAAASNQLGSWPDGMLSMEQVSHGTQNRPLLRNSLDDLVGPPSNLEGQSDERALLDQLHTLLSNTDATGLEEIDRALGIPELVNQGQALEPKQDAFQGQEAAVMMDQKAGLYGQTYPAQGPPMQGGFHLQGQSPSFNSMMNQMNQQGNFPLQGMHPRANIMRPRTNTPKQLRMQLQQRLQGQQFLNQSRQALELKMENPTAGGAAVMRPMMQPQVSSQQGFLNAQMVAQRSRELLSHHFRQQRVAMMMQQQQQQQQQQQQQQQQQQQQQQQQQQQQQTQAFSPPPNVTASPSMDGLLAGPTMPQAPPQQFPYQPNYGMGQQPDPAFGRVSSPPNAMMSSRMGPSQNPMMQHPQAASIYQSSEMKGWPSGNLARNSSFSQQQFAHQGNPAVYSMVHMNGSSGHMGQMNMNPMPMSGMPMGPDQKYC

## OC1=C2Sc3ccc(Cl)cc3N=C2CCC1
[1]
  EC50: 18.4 µM (active)
[2]
  EC50: 8.9 µM (inconclusive)
[3]
  IC50: 13.7 µM (active)
[4]
  IC50: 17.1 µM (active)
[5]
  IC50: 42 µM (active)

## C[C@@H](OC(=O)c1nc[nH]c1C(=O)N1CCc2ccccc2C1)c1ccccc1
[6]
  IC50: 80.9 µM (inactive)
[7]
  IC50: 6.73 µM (active)

## Cc1ccccc1N1C(=O)CC(Sc2nnc(-c3ccccc3)o2)C1=O (centres undefined)
[8]
  EC50: > 26.5 µM (inactive)
[9]
  EC50: > 79.4 µM (not active)
[10]
  EC50: > 112 µM (not active)
[11]
  EC50: > 112 µM (not active)
[12]
  EC50: 26.2 µM (not active)
Beta-galactosidase
  IC50: > 66.6 µM (inactive)
[13]
  EC50: 57.4 µM (active)
[14]
  IC50: 4.12 µM (active)
Beta Lactamase
  IC50: 12.7 µM (inactive)

## O=C1/C(=C/c2ccc([N+](=O)[O-])cc2)Oc2cc(O)ccc21
[15]
  AC50: 53.7 µM (active)
[13]
  EC50: 175 µM (active)
[3]
  IC50: 38.4 µM (inactive)
[4]
  IC50: 10.1 µM (active)

## CCOC(=O)/C(=C\c1ccc(Cl)cc1)c1nc(O)c2c(C)c(C)sc2n1
[16]
  AC50: 0.981 µM (active)
[13]
  EC50: > 260 µM (inconclusive)
Vero
  CC50: 16.5 µM (active)
[17]
  IC50: 1.56 µM (active)
